From ChEMBL document CHEMBL4359928, “Scaffold Morphing To Identify Novel DprE1 Inhibitors with Antimycobacterial Activity” (ACS Med Chem Lett, 2019)
Values after ≈ are worked out from the molar mass of the structure shown.

Experiments:
Assay type in all cases: functional
[1] = system: Mycobacterium tuberculosis; test: Antimycobacterial activity against Mycobacterium tuberculosis H37Rv overexpressing DprE1 assessed as reduction in bacterial cell growth
[2] = system: Mycobacterium tuberculosis; test: Antimycobacterial activity against BTZ043-resistant Mycobacterium tuberculosis H37Rv harbouring DprE1 C387G mutant assessed as reduction in bacterial cell growth
[3] = system: Mycobacterium tuberculosis; test: Antimycobacterial activity against 1,4-azaindole resistant Mycobacterium tuberculosis H37Rv harbouring DprE1 Y314H mutant assessed as reduction in bacterial cell growth
[4] = system: Mycobacterium tuberculosis; test: Antimycobacterial activity against Mycobacterium tuberculosis H37Rv harbouring DprE1 Y314S mutant assessed as reduction in bacterial cell growth
[5] = system: Mycobacterium tuberculosis; test: Antimycobacterial activity against BTZ043-resistant Mycobacterium tuberculosis H37Rv harbouring DprE1 C387S mutant assessed as reduction in bacterial cell growth
[6] = system: Mycobacterium tuberculosis; test: Ratio of MIC for Mycobacterium tuberculosis H37Rv overexpressing DprE1 to MIC for wild type Mycobacterium tuberculosis H37Rv
[7] = system: Mycobacterium tuberculosis; test: Ratio of MIC for 1,4 azaindole-resistant Mycobacterium tuberculosis H37Rv harboring DprE1 Y314H mutant to MIC for wild type Mycobacterium tuberculosis H37Rv
[8] = Mycobacterium tuberculosis, H37Rv, read-out: MIC

In the case of COc1ncnc(Cn2cnc3c(C(=O)NCCF)cccc32)c1C, the MIC [1, 8] is reported as 25 to 50 µM (≈ 8.58 to 17.2 µg/mL), the MIC [2] is reported as 0.78 µM (≈ 0.268 µg/mL) and the MIC [3] is reported as 25 to 50 µM. The MIC [4] was 25 µM (≈ 8.58 µg/mL), the MIC [5] was 0.78 µM (≈ 0.268 µg/mL) and the Ratio [6] was 20. It also gave a Ratio [7] of 20.
In the case of C[C@H]1COC2(CCN(c3nc(=O)c4cc(C(F)(F)F)cc([N+](=O)[O-])c4s3)CC2)O1 [BTZ-043], the MIC [1] is reported as 12.5 µM (≈ 5.39 µg/mL), the MIC [2] is reported as 25 µM (≈ 10.8 µg/mL) and the MIC [3] is reported as 0.003 µM (≈ 0.00129 µg/mL). The MIC [4] was 0.006 µM (≈ 0.00259 µg/mL) and the MIC [5] was 25 µM (≈ 10.8 µg/mL).
With NNC(=O)c1ccncc1 [ISONIAZID] the MIC [1, 8] was 0.22 µM (≈ 0.0302 µg/mL), the MIC [2] was 0.44 µM (≈ 0.0603 µg/mL) and the MIC [3] was 0.44 µM (≈ 0.0603 µg/mL). For the same molecule, the MIC [4] was 0.22 µM (≈ 0.0302 µg/mL) and the MIC [5] was 0.44 µM (≈ 0.0603 µg/mL).
In the case of CO[C@H]1/C=C/O[C@@]2(C)Oc3c(C)c(O)c4c(O)c(c(/C=N/N5CCN(C)CC5)c(O)c4c3C2=O)NC(=O)/C(C)=C\C=C\[C@H](C)[C@H](O)[C@@H](C)[C@@H](O)[C@@H](C)[C@H](OC(C)=O)[C@@H]1C [RIFAMPIN], the MIC [1, 8] is reported as 0.005 µM (≈ 0.00411 µg/mL), the MIC [2] is reported as 0.005 µM (≈ 0.00411 µg/mL) and the MIC [5] is reported as 0.005 µM (≈ 0.00411 µg/mL).
